From article PMC6946680, “Modulation of brain cation-Cl^− cotransport via the SPAK kinase inhibitor ZT-1a” (Nature Communications, 2020)
“And” between values parts separate entries of the source, which are not always exact repeats. Equal entries are not always repeated.

Legend:
NKCC1 pThr203/207/212 = test: Immunoblot of NKCC1 p-Thr203/Thr207/Thr212 in HEK-293 cells; format: cell-based, human
Protocol: (§1) Band intensities were quantitated with ImageJ software. ***p < 0.001; **p < 0.01; *p < 0.05; ns, nonsignificant [by one-way ANOVA with post hoc testing (n = 6, error bars represent the mean ± SEM)].
(§2) Thirty-six hours post transfection, cells were stimulated with either control isotonic or hypotonic medium for a period of 30 min. […] Protein concentrations were determined using the Bradford method. Cells were treated with the indicated concentrations of the SPAK/OSR1 inhibitors.

KCC3 pThr1048 = test: Immunoblot of KCC site 2 phosphorylation (KCC3 Thr1048) in HEK-293 cells transfected with FLAG-KCC3; format: cell-based, human
KCC3 pThr991 = test: Immunoblot of KCC site 1 phosphorylation (KCC3 Thr991) in HEK-293 cells transfected with FLAG-KCC3; format: cell-based, human
SPAK pSer373 = test: Immunoblot of SPAK/OSR1 p-Ser373/Ser325 in HEK-293 cells; format: cell-based, human
Protocol: as §1, §2

GST–[T233E]SPAK kinase = molecular target: T1, GST–[T233E]SPAK kinase (Homo sapiens, UniProt Q9UEW8, T231E); test: SPAK kinase assay with CATCHtide and IC50 determination; format: biochemical
T1 construct: made in house; host or cells: E. coli
Excerpt: II. Experimental procedures
1. Reagents and General methods
Tissue culture reagents were from Life Technologies. P81 phosphocellulose paper was from Whatman […]
and [γ-32P]-ATP was from Perkin Elmer. […] Protein G […]
sepharose was from Amersham. DNA constructs used for transfection were purified from Escherichia coli DH5α using Qiagen or Invitrogen plasmid Maxi kits according to the manufacturer's protocol. All DNA constructs were verified by DNA sequencing.
2. Plasmids, protein expression and purification
DNA clones were from the Division of Signal Transduction Therapy (University of Dundee). The SPAK proteins were expressed in E. Coli and purified as described previously 1.
3. SPAK kinase assays and IC50 determination
SPAK kinase assays employed CATCHtide (cation chloride co-transporter peptide substrate). Peptide kinase assays, performed in triplicate, were set up in a total volume of 50 μl containing 0.5 μg GST– […]
cpm/pmol) and the indicated concentrations of inhibitor dissolved in DMSO. After incubation for 30 min at 30°C, reactions were terminated by spotting 40 μl of the reaction mix onto P81 phosphocellulose paper and immersion in 50 mM phosphoric acid. The papers were washed extensively and incorporation of [γ-32P]ATP into CATCHtide was quantified by Cerenkov counting.
IC50 values were calculated with GraphPad Prism using non-linear regression analysis.
4. Fluorescence polarization […]
concentrations between 0.00001 to 1 mM. Data points are the means of three determinations, with error […]
A Supplemental Fig. 7 Effects of increasing concentrations of ZT-1a on SPAK activity in the absence […]
the absence or presence of five-fold molar excess of wild-type MO25α. b Kinetic data determined for B ZT-1a in the absence or presence of five-fold molar excess of wild-type MO25α. Data are means of […]
presence of wild-type MO25α.

[1] = Hypotonic low Cl, compound concentration 1 (unit not given)
[2] = Hypotonic low Cl, compound concentration 3 (unit not given)
[3] = Hypotonic low Cl, compound concentration 10 (unit not given)
[4] = Isotonic control, compound concentration 1 (unit not given)
[5] = Isotonic control, compound concentration 3 (unit not given)
[6] = Isotonic control, compound concentration 10 (unit not given)

Cc1cc(C(C#N)c2ccc(Cl)cc2)c(Cl)cc1NC(=O)c1ccccc1N (centres unmarked) [ZT-1d]
pThrNKCC1 / NKCC1 (NKCC1 pThr203/207/212; [1]): 0.46 and 0.429 and 0.413 and 0.49
pThrNKCC1 / NKCC1 (NKCC1 pThr203/207/212; [2]): 0.27 and 0.21 and 0.203 and 0.251
pThrNKCC1 / NKCC1 (NKCC1 pThr203/207/212; [3]): 0.11 and 0.077 and 0.102 and 0.085
pThrNKCC1 / NKCC1 (NKCC1 pThr203/207/212; [4]): 0.313 and 0.307 and 0.286 and 0.297
pThrNKCC1 / NKCC1 (NKCC1 pThr203/207/212; [5]): 0.143 and 0.119 and 0.09 and 0.126
pThrNKCC1 / NKCC1 (NKCC1 pThr203/207/212; [6]): 0.055 and 0.031 and 0.042 and 0.047
Site-2 phospho / KCC (KCC3 pThr1048; [1]): 0.37 and 0.41 and 0.35 and 0.482
Site-2 phospho / KCC (KCC3 pThr1048; [2]): 0.29 and 0.25 and 0.23 and 0.287
Site-2 phospho / KCC (KCC3 pThr1048; [3]): 0.105 and 0.124 and 0.08 and 0.117
Site-2 phospho / KCC (KCC3 pThr1048; [4]): 0.412 and 0.477 and 0.43 and 0.521
Site-2 phospho / KCC (KCC3 pThr1048; [5]): 0.209 and 0.165 and 0.191 and 0.177
Site-2 phospho / KCC (KCC3 pThr1048; [6]): 0.108 and 0.08 and 0.114 and 0.094
Site-1 phospho / KCC (KCC3 pThr991; [1]): 0.516 and 0.487 and 0.55 and 0.508
Site-1 phospho / KCC (KCC3 pThr991; [2]): 0.509 and 0.49 and 0.511 and 0.521
Site-1 phospho / KCC (KCC3 pThr991; [3]): 0.276 and 0.218 and 0.234 and 0.258
Site-1 phospho / KCC (KCC3 pThr991; [4]): 0.49 and 0.471 and 0.48 and 0.466
Site-1 phospho / KCC (KCC3 pThr991; [5]): 0.355 and 0.36 and 0.38 and 0.371
Site-1 phospho / KCC (KCC3 pThr991; [6]): 0.218 and 0.232 and 0.255 and 0.241
pSer373 / SPAK (SPAK pSer373; [1]): 0.19 and 0.21 and 0.18 and 0.207
pSer373 / SPAK (SPAK pSer373; [2]): 0.131 and 0.12 and 0.103 and 0.116
pSer373 / SPAK (SPAK pSer373; [3]): 0.04 and 0.025 and 0.035 and 0.031
pSer373 / SPAK (SPAK pSer373; [4]): 0.11 and 0.119 and 0.109 and 0.101
pSer373 / SPAK (SPAK pSer373; [5]): 0.072 and 0.065 and 0.051 and 0.063
pSer373 / SPAK (SPAK pSer373; [6]): 0.022 and 0.031 and 0.038 and 0.028

CN[C@@H]1C[C@H]2O[C@@](C)([C@@H]1OC)n1c3ccccc3c3c4c(c5c6ccccc6n2c5c31)C(=O)NC4 [staurosporine, reference compound]
SPAK kinase activity signal (Fig S3 source data) (GST–[T233E]SPAK kinase; ATP 0.01 mM, inhibitor 1e-5 uM): 880 and 902
SPAK kinase activity signal (Fig S3 source data) (GST–[T233E]SPAK kinase; ATP 0.01 mM, inhibitor 0.0001 uM): 874
SPAK kinase activity signal (Fig S3 source data) (GST–[T233E]SPAK kinase; ATP 0.01 mM, inhibitor 0.001 uM): 875
SPAK kinase activity signal (Fig S3 source data) (GST–[T233E]SPAK kinase; ATP 0.01 mM, inhibitor 0.03 uM): 535 and 689 and 604
SPAK kinase activity signal (Fig S3 source data) (GST–[T233E]SPAK kinase; ATP 0.01 mM, inhibitor 0.1 uM): 405 and 495 and 442
SPAK kinase activity signal (Fig S3 source data) (GST–[T233E]SPAK kinase; ATP 0.01 mM, inhibitor 0.3 uM): 385 and 459 and 417
SPAK kinase activity signal (Fig S3 source data) (GST–[T233E]SPAK kinase; ATP 0.01 mM, inhibitor 1 uM): 408 and 363
SPAK kinase activity signal (Fig S3 source data) (GST–[T233E]SPAK kinase; ATP 0.01 mM, inhibitor 10 uM): 206 and 221
SPAK kinase activity signal (Fig S3 source data) (GST–[T233E]SPAK kinase; ATP 0.01 mM, inhibitor 100 uM): 109 and 126
SPAK kinase activity signal (Fig S3 source data) (GST–[T233E]SPAK kinase; ATP 0.01 mM, inhibitor 1000 uM): 95 and 64 and 75
SPAK kinase activity signal (Fig S3 source data) (GST–[T233E]SPAK kinase; ATP 0.1 mM, inhibitor 1e-5 uM): 880 and 897
SPAK kinase activity signal (Fig S3 source data) (GST–[T233E]SPAK kinase; ATP 0.1 mM, inhibitor 0.0001 uM): 874
SPAK kinase activity signal (Fig S3 source data) (GST–[T233E]SPAK kinase; ATP 0.1 mM, inhibitor 0.001 uM): 875 and 869
SPAK kinase activity signal (Fig S3 source data) (GST–[T233E]SPAK kinase; ATP 0.1 mM, inhibitor 0.03 uM): 715
SPAK kinase activity signal (Fig S3 source data) (GST–[T233E]SPAK kinase; ATP 0.1 mM, inhibitor 0.1 uM): 705 and 625 and 675
SPAK kinase activity signal (Fig S3 source data) (GST–[T233E]SPAK kinase; ATP 0.1 mM, inhibitor 0.3 uM): 565 and 509 and 529
SPAK kinase activity signal (Fig S3 source data) (GST–[T233E]SPAK kinase; ATP 0.1 mM, inhibitor 1 uM): 453 and 458 and 431
SPAK kinase activity signal (Fig S3 source data) (GST–[T233E]SPAK kinase; ATP 0.1 mM, inhibitor 3 uM): 389 and 363
SPAK kinase activity signal (Fig S3 source data) (GST–[T233E]SPAK kinase; ATP 0.1 mM, inhibitor 100 uM): 112 and 127
SPAK kinase activity signal (Fig S3 source data) (GST–[T233E]SPAK kinase; ATP 0.1 mM, inhibitor 1000 uM): 114 and 95
SPAK kinase activity signal (Fig S3 source data) (GST–[T233E]SPAK kinase; ATP 1 mM, inhibitor 1e-5 uM): 880
SPAK kinase activity signal (Fig S3 source data) (GST–[T233E]SPAK kinase; ATP 1 mM, inhibitor 0.0001 uM): 874
SPAK kinase activity signal (Fig S3 source data) (GST–[T233E]SPAK kinase; ATP 1 mM, inhibitor 0.001 uM): 875
SPAK kinase activity signal (Fig S3 source data) (GST–[T233E]SPAK kinase; ATP 1 mM, inhibitor 0.3 uM): 714 and 703
SPAK kinase activity signal (Fig S3 source data) (GST–[T233E]SPAK kinase; ATP 1 mM, inhibitor 1 uM): 504 and 558 and 522
SPAK kinase activity signal (Fig S3 source data) (GST–[T233E]SPAK kinase; ATP 1 mM, inhibitor 3 uM): 489 and 412 and 459
SPAK kinase activity signal (Fig S3 source data) (GST–[T233E]SPAK kinase; ATP 1 mM, inhibitor 10 uM): 406 and 421 and 391
SPAK kinase activity signal (Fig S3 source data) (GST–[T233E]SPAK kinase; ATP 1 mM, inhibitor 100 uM): 356
SPAK kinase activity signal (Fig S3 source data) (GST–[T233E]SPAK kinase; ATP 1 mM, inhibitor 1000 uM): 214 and 183
